The subject of one data set is Candida albicans. The experiment in a line: Kirby-Bauer disc diffusion antimicrobial susceptibility testing. It is filed as cell-based. An excerpt:
This example describes the method for testing the antimicrobial susceptibility of anthocyanins, anthocyanidins, or metabolites and compounds thereof. The Kirby-Bauer method of disc diffusion was used for testing, following a standard set of procedures recommended by the NCCLS. In this methodology, a set of discs saturated with either testing compounds or a control was placed on inoculated agar plates. The plates were inoculated with organisms including C. difficile, P. acnes, C. prefringens, L. casei, C. albicans, E. coli, ATTC 8739 and ATCC 43895, S. aureus, S. mutans, S. pyogenes, P. aeruginosa and K. pneumonia. The control sample was amoxicillin, an antimicrobial with very effective broad-spectrum antibiotic properties. Samples included delphinidin, pelargonidin, cyanidin CI, 28% cyanindin-3-glucoside (C3G), protocatechuic acid (PCA) and 2,4,6 Trihydroxybenzaldehyde (2,4,6 THBA).
After 18, 24, or 48 hours of incubation, depending upon the microorganism, each plate was examined. The diameters of the zones of complete inhibition were measured, including the diameter of the disc. Zones were measured to the nearest millimeter, using sliding calipers. The size of the zones of inhibition was interpreted by referring to NCCLS standard. […]
For orientation: Agar diffusion results depend on both activity and mobility in agar.

The subject of a further data set is IGF-1, TGE-β, EGF. The data set can be described thus: Growth factor levels by ELISA in stripped, infected mouse skin (Example 5). It is filed as in vivo, mice. The procedure: Four different conditions were used: mice had back skin tape stripped and the stripped site (wound) was infected with P. aeruginosa; mice had back skin stripped and were not infected, mice had taped stripped, infected and treated with PCA, mice were tape stripped, uninfected, and treated with PCA. When used, the PCA test reagent was applied topically in an aqueous solution on the stripped site at two hours and 24 hours.
The testing reagents consisted of and PCA formulated at one dose, 25 mM, in an aqueous solution. Levels of IGF-1, TGE-β, and EGF levels in the skin tissue at 48 hours were measured by ELISA. There were two control groups: the stripped skin and the stripped skin and infected.
Background: An ELISA detects its analyte on a solid surface through an enzyme-linked reagent.

In a further data set the test system is Pseudomonas. The conditions noted are these: cited from earlier work.
Data set [1] has as its system P. aeruginosa (ACTA 9027). The data set can be described thus: Mouse tape-stripped skin wound infection model (Example 2). The data set is classed as in vivo. The conditions noted are these: day five; for bacterial burden: topical aqueous 50, 100, 200 mM at two hours and daily for four days, none statistically significant; for most effective dose concentration: topical aqueous.

The test system of another data set is P. acnes. The experiment in a line: Kirby-Bauer disc diffusion antimicrobial susceptibility testing. The data set is classed as cell-based.
Data set [2] deals with stripped skin wound infected with Pseudomonas aeruginosa (ATCC 27853). The experiment in a line: Histology of stripped, infected and treated mouse skin wound (Example 6). Particulars: 48 hours; for tissue repair as evidenced by histology: two different doses.
Data set [3] has as its system Staphylococcus aureus ATCC 33591 (MRSA). The experiment in a line: Kirby-Bauer disc diffusion antimicrobial susceptibility testing. The data set is classed as cell-based.
For data set [4] the following is noted: human skin; cited from earlier work.
The subject of data set [5] is Pseudomonas aeruginosa. The experiment in a line: Bacterial kill in stripped skin wound of a rodent. It is filed as in vivo. The conditions noted are these: for bactericidal effect on stripped skin wound: topical at various calculated doses, in 48 to 96 hours; for kill of Pseudomonas aeruginosa: topical on stripped skin wound, in 48 hours, both reagents and dose. The source says: Experimental Groups: There were 4 experimental groups. […] Treatment varied by reagent and dosage.

Data set [6] deals with Pseudomonas aeruginosa. The data set can be described thus: Kirby-Bauer disc diffusion antimicrobial susceptibility testing. The data set is classed as cell-based.
The subject of a further data set is MRSA. The conditions noted are these: cited from earlier work.
For data set [7] the following is noted: after ingestion; cited from earlier work.
For data set [8] the following is noted: female, rat, in vivo.
Data set [9] concerns P. aeruginosa (ACTA 27853). The data set can be described thus: Mouse tape-stripped skin wound infection model (Example 3). The data set is classed as in vivo. Particulars: for bacterial burden: 48 and 96 hours. The procedure:
Mice had back skin tape stripped and the stripped site (wound) was infected with P. aeruginosa (ACTA 27853). The test reagents were applied topically in an aqueous solution on the stripped site at two hours and daily on day 1, 2 and 3.
C3G, an anthocyanin and its main metabolite PCA were formulated and tested at several doses. The aqueous carrier was water. The C3G formulation included 100 mM and 200 mM dose concentrations and the PCA formulation included 25 and 50 mM dose concentrations.

The conditions of data set [10]: rat, in vivo; cited from earlier work.
A further data set deals with IGF-1, TGF-β, EGF. The experiment in a line: Local growth factor levels in normal (unstripped, uninfected) mouse skin (Example 4). It is filed as in vivo, mice. The conditions noted are these: 100 μM topical, normal rodent skin. The procedure: Mice were shaved but unstrapped and uninfected (normal rodent skin). The test reagents were applied topically in an aqueous solution on the unstripped site at two hours and daily on day 1, 2 and 3. Testing reagents consisted of […] and PCA formulated at one dose, 100 μM in an aqueous solution.

[11] abbreviates: all tested doses (PCA 25, 50 mM; C3G 100, 200 mM).

“Also recorded” adds a separate entry of the source.

On to `O=C(O)c1ccc(O)c(O)c1` [PCA, 3,4 dihydroxybenzoic acid], for which the “susceptibility of Candida albicans” value with Candida albicans is on record as “susceptible”. For the same molecule, the IGF-1 production entry in the data set with IGF-1, TGE-β, EGF (25 mM topical at 2 and 24 hours, stripped and infected skin, 48 hours) was “optimizes the IGF-1 production”. For the same molecule, in the data set with IGF-1, TGE-β, EGF (25 mM topical, stripped and infected skin), the local growth hormones entry was “optimizes the local growth hormones”. Besides, in the data set on IGF-1, TGE-β, EGF (25 mM topical, stripped, infected and treated wound vs other groups, 48 hours), the EGF response level entry is listed as “lowest”. The “biofilm destruction, Pseudomonas” value in the data set with Pseudomonas is “biofilm destroyer”. Besides, in data set [1], the bacterial burden entry is “decreased the bacterial burden” and the “most effective dose concentration” value stood at 50 mM. For the same molecule, the “activity against P. acnes” value in the data set with P. acnes is “bactericidal”. In addition, in data set [2] (PCA 25 mM), the “collagen between epidermis and dermis” value was “collagen proliferation between the epidermis and dermis; also recorded: collagen layer formation between the epidermis and dermis”; the dermal layer thickness result is “thickened”; the “hair follicles, cellular lining” value is listed as “prominent with multiple cellular lining”; the inflammation result is reported as “abundant inflammation”. In addition, in [2] (PCA 25 mM), the surface cellularity result was “abundant and multiple cell layers”; the vascularity result is given as “moderate vascularity, but less than that seen in infected untreated group”. In addition, in data set [2] (PCA 50 mM), the dermal layer thickness entry is recorded as “thicker”; the “hair follicles, cellular lining” value was “double layer of cells”; the inflammation result was “increased in the dermis and below the muscle layer”; the surface cellularity result was “covered with multiple layers of cells”. Further, the vascularity entry in data set [2] (PCA 50 mM) is on record as “increased vascularity”. The “tissue repair as evidenced by histology” value in data set [2] is on record as “stimulated tissue repair”. Also, the “activity against Staphylococcus aureus ATCC 33591 (MRSA)” value in [3] is on record as “effective”. For the same molecule, the skin irritation entry in [4] is “no skin irritation”. Moreover, in the data set with Pseudomonas aeruginosa [5], the “bactericidal effect on stripped skin wound” value is given as “bactericidal” and the “kill of Pseudomonas aeruginosa” value is given as 10,000 fold. Further, in the data set on Pseudomonas aeruginosa [6], the “activity against Pseudomonas aeruginosa” value is recorded as “some effectiveness”. The “biofilm destruction, MRSA” value in the data set on MRSA is recorded as “biofilm destroyer”. Besides, the “duration of metabolism prior to excretion in the urine and feces” value in data set [7] is “eight”. Further, the “human relative dose to exceed safety” value in data set [8] is 350,000 milligrams per day. In [9] (25 mM topical), the “statistical significance of bacterial burden reduction” value was “statistically significant at 48 hours” and the bacterial burden result was “reduced the bacterial burden at both time periods”. The bacterial burden result in data set [9] (setting [11]) was “decreased the bacterial burden”. Moreover, the toxicity result in data set [10] is listed as “greater than 5000 mg/kg body weight”.

Turning to `OC[C@H]1O[C@@H](Oc2cc3c(O)cc(O)cc3[o+]c2-c2ccc(O)c(O)c2)[C@H](O)[C@@H](O)[C@@H]1O` [C3G, Cyanidin 3-glucoside], in data set [1], the bacterial burden result is “decreased the bacterial burden” and the “most effective dose concentration” value was found to be 100 mM. For the same molecule, in the data set with P. acnes, the “activity against P. acnes” value is reported as “bactericidal”. Further, in data set [2] (C3G 100 mM), the dermal layer thickness entry was “thicker”; the “hair follicles, cellular lining” value is “single and double cellular lining”; the inflammation result was “inflammation in the dermis and muscular layer and below”; the surface cellularity result is “multiple cellular covering of the surface”. Further, the vascularity result in data set [2] (C3G 100 mM) is “prominent”. Also, in data set [2] (C3G 200 mM), the dermal layer thickness entry is given as “thickened”; the “hair follicles, cellular lining” value is “single and double cellular lining”; the inflammation result was “inflammation in the dermis and muscular layer”; the surface cellularity entry is listed as “multiple cells thick”. Moreover, the vascularity result in data set [2] (C3G 200 mM) was “increased”. The “tissue repair as evidenced by histology” value in data set [2] is “stimulated tissue repair”. In the data set with Pseudomonas aeruginosa [5], the “bactericidal effect on stripped skin wound” value is on record as “bactericidal” and the “kill of Pseudomonas aeruginosa” value is 10,000 fold. Also, the “all three local growth hormones (IGF-1, TGF-β, EGF)” value with IGF-1, TGF-β, EGF is given as “decrease of all three local growth hormones”. The bacterial burden result in data set [9] (100 mM topical) is “significantly reduced the bacterial burden”. The bacterial burden result in [9] (200 mM topical) is given as “significantly reduced the bacterial burden”. The bacterial burden result in data set [9] (setting [11]) is on record as “decreased the bacterial burden”.

Take `CC1(C)S[C@@H]2[C@H](NC(=O)[C@H](N)c3ccc(O)cc3)C(=O)N2[C@H]1C(=O)O` [Amoxicillin, amoxicillin, reference compound]: the “activity against Pseudomonas aeruginosa” value in the data set with Pseudomonas aeruginosa [6] is recorded as “no effect”.

The values above are taken from patent US20220125987A1, “WOUND CLOSURE DEVICES COMPRISING PROTOCATECHUIC ACID” (priority 2020, published 2022).
